“And” between values parts separate entries of the source, which are not always exact repeats. Equal values may be shown once. The source made the active and inactive calls.
Experiments:
[1] = viability loss in Vero cells – cytotoxicity control for Vif-APOBEC3G degradation inhibitor project, dose response (AID 1117358); assay type: functional; details: Vero
[2] = target: Dual specificity protein kinase CLK1 (Homo sapiens, UniProt P49759); experiment: inhibition of human CLK1 activity – biochemical, cherry-picked samples, selectivity assay for Dyrk1A inhibitor project, dose response (AID 588811)
Dual specificity protein kinase CLK1, sequence (P49759 whole entry): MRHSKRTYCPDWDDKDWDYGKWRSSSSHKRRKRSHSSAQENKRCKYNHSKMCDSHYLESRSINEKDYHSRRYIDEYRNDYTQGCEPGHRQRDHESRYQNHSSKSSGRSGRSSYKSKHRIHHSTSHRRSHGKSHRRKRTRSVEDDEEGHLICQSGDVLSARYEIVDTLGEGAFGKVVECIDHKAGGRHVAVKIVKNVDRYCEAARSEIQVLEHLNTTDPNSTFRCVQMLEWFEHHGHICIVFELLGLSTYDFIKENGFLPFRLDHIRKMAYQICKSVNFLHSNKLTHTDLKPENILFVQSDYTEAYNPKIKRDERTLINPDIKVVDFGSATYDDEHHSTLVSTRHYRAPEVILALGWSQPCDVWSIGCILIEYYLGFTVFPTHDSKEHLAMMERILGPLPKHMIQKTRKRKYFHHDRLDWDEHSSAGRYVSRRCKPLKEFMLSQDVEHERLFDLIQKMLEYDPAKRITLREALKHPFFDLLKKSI

[3] = target: Dual specificity tyrosine-phosphorylation-regulated kinase 1A (Rattus norvegicus, UniProt Q63470); assay type: biochemical, Homo sapiens
[4] = target: T1, Zinc finger protein mex-5 (Caenorhabditis elegans, UniProt Q9XUB2); experiment: potency of MEX-5 RNA-binding blockers – biochemical, C. elegans, fluorescence polarization, dose response (AID 1960)
T1 sequence (Q9XUB2 whole entry): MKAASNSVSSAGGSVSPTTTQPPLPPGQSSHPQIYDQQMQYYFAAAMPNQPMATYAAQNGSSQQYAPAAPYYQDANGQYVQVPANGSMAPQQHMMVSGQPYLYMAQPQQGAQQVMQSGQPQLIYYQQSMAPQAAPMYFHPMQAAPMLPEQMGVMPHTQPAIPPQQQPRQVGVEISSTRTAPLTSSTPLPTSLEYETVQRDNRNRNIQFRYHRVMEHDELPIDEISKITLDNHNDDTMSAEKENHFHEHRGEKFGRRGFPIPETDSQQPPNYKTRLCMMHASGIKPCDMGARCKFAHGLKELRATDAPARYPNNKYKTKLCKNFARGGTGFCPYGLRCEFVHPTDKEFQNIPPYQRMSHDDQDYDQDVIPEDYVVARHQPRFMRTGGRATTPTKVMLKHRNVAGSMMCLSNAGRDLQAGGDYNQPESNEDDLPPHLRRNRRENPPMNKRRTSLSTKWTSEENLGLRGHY

[5] = target: T2, Apoptotic protease-activating factor 1 (Homo sapiens, UniProt O14727); assay type: functional
T2 sequence (O14727 whole entry): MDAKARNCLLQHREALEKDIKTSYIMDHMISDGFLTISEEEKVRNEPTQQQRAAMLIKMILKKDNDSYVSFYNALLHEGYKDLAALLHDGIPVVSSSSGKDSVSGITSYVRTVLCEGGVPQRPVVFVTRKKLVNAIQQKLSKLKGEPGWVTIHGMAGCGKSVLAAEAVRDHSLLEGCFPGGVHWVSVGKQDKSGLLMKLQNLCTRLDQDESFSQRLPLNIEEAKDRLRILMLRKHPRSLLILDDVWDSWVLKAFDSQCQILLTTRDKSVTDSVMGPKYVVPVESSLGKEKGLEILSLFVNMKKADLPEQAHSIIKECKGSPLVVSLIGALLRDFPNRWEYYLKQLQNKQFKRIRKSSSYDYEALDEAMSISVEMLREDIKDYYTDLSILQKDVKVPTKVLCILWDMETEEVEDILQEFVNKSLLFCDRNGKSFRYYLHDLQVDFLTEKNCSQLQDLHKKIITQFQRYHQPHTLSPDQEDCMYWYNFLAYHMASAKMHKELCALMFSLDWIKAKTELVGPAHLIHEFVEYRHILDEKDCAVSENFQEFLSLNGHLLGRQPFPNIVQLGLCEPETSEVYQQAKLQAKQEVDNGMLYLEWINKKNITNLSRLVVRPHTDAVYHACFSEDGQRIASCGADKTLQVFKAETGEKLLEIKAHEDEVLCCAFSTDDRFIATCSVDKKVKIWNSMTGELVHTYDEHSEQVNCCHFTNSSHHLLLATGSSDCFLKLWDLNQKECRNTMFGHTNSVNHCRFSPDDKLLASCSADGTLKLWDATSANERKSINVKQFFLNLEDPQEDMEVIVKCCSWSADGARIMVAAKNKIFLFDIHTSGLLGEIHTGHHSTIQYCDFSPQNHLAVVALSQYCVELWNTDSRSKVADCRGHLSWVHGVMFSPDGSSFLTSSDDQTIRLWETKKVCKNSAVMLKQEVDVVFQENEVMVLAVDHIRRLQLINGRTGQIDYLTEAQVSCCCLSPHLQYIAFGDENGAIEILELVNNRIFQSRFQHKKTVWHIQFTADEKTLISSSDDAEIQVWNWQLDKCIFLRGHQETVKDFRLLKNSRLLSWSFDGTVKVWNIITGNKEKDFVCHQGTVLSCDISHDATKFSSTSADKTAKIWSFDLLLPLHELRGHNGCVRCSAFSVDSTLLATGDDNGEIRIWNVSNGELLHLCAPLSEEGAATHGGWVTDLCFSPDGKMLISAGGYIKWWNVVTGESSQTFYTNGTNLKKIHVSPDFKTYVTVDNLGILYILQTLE

[6] = target: T3, RNA-binding protein pos-1 (Caenorhabditis elegans, UniProt G5EF15); experiment: disruptors of C. elegans POS-1 RNA interaction – biochemical, fluorescence polarization, dose response (AID 1964);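 also: purified POS-1 fused to maltose binding protein made in E. coli; potency of compounds blocking POS-1 binding to fluorescent RNA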
T3 sequence (G5EF15 whole entry): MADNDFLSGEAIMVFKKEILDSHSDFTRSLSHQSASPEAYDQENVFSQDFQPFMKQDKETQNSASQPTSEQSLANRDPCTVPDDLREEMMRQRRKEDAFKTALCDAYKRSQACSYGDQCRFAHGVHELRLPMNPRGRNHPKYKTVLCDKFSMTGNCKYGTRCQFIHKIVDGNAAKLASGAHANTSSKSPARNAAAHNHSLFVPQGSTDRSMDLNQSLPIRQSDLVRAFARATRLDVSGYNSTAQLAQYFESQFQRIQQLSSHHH

[7] = target: Long-chain-fatty-acid--AMP ligase FadD28 (Mycobacterium tuberculosis, UniProt P9WQ59); experiment: Fluorescence polarization aasay to screen for inhibitors that compete for the binding of FadD28 to a bisubstrate Measured in Biochemical System Using Plate Reader - 2147-01_Inhibitor_Dose_CherryPick_Activity.; assay type: functional, Mycobacterium tuberculosis H37Rv
Long-chain-fatty-acid--AMP ligase FadD28, sequence (P9WQ59 whole entry): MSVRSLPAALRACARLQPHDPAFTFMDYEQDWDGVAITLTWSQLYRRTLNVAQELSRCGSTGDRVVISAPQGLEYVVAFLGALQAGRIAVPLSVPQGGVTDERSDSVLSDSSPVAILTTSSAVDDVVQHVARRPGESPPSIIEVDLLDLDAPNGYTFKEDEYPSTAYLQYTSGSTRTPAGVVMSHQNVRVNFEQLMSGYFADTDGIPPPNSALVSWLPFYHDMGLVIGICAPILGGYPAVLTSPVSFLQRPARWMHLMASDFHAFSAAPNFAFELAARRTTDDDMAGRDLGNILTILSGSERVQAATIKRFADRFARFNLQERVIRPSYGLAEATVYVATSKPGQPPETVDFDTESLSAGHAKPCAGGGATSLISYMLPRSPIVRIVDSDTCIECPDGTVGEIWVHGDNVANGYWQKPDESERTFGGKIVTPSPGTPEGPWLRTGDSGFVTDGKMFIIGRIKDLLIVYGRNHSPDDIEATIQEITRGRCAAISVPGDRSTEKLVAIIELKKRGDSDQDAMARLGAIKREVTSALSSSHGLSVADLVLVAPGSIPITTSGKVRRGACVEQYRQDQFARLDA

Beta-arrestin-1 = Beta-arrestin-1 (Homo sapiens, UniProt P49407); experiment: beta-arrestin/AP2 interaction blockers, potency – biochemical, cherry pick 1, beta2-adaptin appendage, flow cytometry, dose response (AID 588783); assay type: functional
Beta-arrestin-1, sequence (P49407 whole entry): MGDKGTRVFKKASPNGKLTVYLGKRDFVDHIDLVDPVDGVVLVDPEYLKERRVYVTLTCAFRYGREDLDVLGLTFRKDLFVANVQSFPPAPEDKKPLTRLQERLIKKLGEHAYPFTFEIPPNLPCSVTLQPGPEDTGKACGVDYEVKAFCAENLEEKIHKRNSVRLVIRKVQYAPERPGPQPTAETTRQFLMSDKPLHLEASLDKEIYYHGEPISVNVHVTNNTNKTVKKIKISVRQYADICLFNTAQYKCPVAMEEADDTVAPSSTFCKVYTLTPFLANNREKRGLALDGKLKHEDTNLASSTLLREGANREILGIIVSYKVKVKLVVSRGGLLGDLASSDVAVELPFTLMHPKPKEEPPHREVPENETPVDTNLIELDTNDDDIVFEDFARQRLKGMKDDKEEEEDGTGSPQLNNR

Escherichia coli = experiment: microbe, parasite or virus in culture
HEK293 [8] = experiment: HEK293T cell viability loss, resazurin readout – resazurin fluorescence, cytotoxicity control for NF-kB activator project, SAR follow-up (AID 493251); assay type: functional, cell-based; details: Homo sapiens
[9] = HEK-293T cell viability reduction – luminescence, B-cell screen hits, cytotoxicity control for BCR NF-kB inhibitor project, dose response (AID 489021); assay type: functional, cell-based;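 also: HEK-293T cells carrying an NF-kB luciferase reporter; cells exposed to compound for about 14 hours before viability readout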
Jurkat = experiment: SAR Analysis of small molecule inhibitors of T-cell specific antigen receptor-induced NF-kB activation in a Jurkat cell line using a luminescence assay - Set 2. [Related pubchem assays (depositor defined):AID435003, AID435012, AID465]; assay type: functional, cell-based; details: Homo sapiens
HEK293 [10] = experiment: SAR Analysis of small molecule inhibitors of T-cell specific antigen receptor-induced NF-kB activation in a HEK-293T cell line using a luminescence assay - Set 2. [Related pubchem assays (depositor defined):AID435003, AID435012, AID489026]; assay type: functional, cell-based; details: Homo sapiens
Hexokinase-1 = Hexokinase-1 (Homo sapiens, UniProt P19367); experiment: SAR analysis of small molecule inhibitors of hexokinase domain containing I (HKDC1) in the hexokinase 1 selectivity assay. [Related pubchem assays (depositor defined):AID493160, AID493190]; assay type: functional
Hexokinase-1, sequence (P19367 whole entry, the tested form may be a part): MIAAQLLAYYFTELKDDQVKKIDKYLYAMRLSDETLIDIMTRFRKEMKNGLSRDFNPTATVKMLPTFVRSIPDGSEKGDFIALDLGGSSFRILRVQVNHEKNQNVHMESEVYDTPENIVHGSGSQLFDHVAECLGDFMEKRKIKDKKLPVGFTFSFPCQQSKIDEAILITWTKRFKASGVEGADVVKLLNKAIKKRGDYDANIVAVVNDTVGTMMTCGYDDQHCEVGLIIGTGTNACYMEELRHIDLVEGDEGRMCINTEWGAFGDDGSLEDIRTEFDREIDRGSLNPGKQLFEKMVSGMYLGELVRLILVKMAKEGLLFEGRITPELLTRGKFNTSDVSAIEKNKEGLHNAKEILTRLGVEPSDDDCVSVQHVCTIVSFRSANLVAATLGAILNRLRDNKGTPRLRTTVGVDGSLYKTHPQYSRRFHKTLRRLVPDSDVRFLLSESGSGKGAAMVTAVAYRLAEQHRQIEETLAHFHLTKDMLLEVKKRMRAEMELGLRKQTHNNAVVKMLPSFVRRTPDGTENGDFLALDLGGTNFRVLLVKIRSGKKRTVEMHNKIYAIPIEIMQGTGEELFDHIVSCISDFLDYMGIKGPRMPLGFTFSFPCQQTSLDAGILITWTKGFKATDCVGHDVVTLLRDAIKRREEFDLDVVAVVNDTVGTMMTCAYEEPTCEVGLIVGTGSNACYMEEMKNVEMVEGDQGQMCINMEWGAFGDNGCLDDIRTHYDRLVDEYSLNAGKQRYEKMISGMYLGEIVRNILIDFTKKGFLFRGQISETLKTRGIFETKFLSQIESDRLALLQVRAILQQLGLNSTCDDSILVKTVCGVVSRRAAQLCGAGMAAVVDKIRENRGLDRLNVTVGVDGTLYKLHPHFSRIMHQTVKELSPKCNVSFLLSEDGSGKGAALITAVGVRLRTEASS

Hexokinase HKDC1 = target: T4, Hexokinase HKDC1 (Homo sapiens, UniProt Q2TB90); experiment: SAR analysis of small molecule inhibitors of hexokinase domain containing I (HKDC1). [Related pubchem assays (depositor defined):AID493160, AID493190]; assay type: functional
T4 sequence (Q2TB90 whole entry): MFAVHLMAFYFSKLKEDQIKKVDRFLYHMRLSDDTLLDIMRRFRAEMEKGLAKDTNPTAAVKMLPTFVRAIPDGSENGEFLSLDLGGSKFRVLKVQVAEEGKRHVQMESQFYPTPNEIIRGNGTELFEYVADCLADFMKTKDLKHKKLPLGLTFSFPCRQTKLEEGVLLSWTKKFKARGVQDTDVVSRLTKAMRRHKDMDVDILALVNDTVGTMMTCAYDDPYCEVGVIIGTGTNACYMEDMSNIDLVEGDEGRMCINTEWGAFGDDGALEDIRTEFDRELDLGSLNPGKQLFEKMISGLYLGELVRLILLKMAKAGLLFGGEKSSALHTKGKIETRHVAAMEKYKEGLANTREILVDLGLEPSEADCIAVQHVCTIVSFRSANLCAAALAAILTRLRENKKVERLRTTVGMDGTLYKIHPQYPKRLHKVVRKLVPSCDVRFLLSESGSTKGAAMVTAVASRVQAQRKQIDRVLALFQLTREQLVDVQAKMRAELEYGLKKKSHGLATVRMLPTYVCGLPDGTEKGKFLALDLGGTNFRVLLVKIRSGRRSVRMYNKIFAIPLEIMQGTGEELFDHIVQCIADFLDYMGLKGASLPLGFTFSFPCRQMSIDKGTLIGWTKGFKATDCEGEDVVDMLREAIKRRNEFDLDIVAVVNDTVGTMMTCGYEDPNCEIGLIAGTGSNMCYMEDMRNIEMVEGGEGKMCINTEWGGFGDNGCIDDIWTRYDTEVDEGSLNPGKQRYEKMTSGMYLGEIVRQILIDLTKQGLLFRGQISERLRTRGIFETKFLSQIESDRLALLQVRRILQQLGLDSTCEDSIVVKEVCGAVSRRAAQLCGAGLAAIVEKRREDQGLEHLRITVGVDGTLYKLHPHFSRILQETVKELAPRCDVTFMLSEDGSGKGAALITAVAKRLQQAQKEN

[11] = target: Beta-2 adrenergic receptor (Homo sapiens, UniProt P07550); experiment: ADRB2 activation measured by internalization – cell-based, FAP fluorogen, flow cytometry, cherry pick 1, dose response (AID 588763); assay type: functional
Beta-2 adrenergic receptor, sequence (P07550 whole entry): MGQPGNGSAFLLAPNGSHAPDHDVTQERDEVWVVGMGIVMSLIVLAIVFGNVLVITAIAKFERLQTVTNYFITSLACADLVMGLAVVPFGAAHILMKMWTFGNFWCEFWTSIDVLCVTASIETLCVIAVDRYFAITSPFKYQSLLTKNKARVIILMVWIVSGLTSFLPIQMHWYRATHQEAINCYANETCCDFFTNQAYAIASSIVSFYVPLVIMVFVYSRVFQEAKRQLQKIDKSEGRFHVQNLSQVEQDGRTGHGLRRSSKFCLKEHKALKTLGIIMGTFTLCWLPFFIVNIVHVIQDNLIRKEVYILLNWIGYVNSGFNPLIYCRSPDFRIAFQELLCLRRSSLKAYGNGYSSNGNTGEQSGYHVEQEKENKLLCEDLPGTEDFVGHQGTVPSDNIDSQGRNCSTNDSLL

[12] = target: Glycogen synthase kinase-3 alpha (Homo sapiens, UniProt P49840); experiment: Inhibition of Human GSK-3 alpha Activity Measured in Biochemical System Using Microfluidics - 2063-06_Inhibitor_Dose_DryPowder_Activity. [Related pubchem assays (depositor defined):AID2709]
Glycogen synthase kinase-3 alpha, sequence (P49840 whole entry): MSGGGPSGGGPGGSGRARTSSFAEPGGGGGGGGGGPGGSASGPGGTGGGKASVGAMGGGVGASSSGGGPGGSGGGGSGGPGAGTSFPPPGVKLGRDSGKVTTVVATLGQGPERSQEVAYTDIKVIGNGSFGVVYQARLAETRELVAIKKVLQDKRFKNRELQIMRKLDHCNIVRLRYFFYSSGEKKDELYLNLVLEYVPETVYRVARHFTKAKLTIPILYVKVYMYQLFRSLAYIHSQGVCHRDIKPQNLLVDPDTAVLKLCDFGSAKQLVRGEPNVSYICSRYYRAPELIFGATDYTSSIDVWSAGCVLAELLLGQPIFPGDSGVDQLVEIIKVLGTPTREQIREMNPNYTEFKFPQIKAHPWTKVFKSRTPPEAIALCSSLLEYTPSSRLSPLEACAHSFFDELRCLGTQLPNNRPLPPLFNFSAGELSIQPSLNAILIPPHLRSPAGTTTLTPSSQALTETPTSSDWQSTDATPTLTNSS

[13] = target: Glycogen synthase kinase-3 beta (Homo sapiens, UniProt P49841); experiment: Inhibition of Human GSK-3 beta Activity Measured in Biochemical System Using Microfluidics - 2063-05_Inhibitor_Dose_DryPowder_Activity. [Related pubchem assays (depositor defined):AID2709]
Glycogen synthase kinase-3 beta, sequence (P49841 whole entry): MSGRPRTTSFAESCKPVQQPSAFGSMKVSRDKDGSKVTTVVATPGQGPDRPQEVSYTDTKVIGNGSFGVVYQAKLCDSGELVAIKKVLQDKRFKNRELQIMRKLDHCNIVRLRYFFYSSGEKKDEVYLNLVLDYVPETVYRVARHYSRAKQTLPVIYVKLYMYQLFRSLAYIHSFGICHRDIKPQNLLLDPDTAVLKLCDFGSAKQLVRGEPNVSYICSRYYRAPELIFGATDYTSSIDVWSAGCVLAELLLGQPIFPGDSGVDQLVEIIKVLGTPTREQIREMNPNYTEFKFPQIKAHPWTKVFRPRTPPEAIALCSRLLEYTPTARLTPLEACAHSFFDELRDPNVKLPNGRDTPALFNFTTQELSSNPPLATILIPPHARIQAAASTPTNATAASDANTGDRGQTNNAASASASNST

[14] = target: 5-hydroxytryptamine receptor 5A (Homo sapiens, UniProt P47898); experiment: Counterscreen for agonists of OPRM1-OPRD1 heterodimerization: luminescence-based cell-based high throughput dose response assay to identify agonists of 5-hydroxytryptamine (serotonin) 5A receptor (HTR5A). [Related pubchem assays (depositor defined):AID504326, AID504355, AID504692, AID504904, AID504905]; assay type: functional
5-hydroxytryptamine receptor 5A, sequence (P47898 whole entry): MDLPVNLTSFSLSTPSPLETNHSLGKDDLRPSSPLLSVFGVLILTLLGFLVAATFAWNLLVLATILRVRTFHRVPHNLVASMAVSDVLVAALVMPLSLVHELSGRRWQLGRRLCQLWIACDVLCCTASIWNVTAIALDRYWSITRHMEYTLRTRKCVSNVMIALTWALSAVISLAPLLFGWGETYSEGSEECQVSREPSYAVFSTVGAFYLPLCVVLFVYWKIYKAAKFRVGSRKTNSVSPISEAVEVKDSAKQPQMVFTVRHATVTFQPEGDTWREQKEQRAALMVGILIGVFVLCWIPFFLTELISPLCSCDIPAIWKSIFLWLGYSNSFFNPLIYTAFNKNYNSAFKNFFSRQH

[15] = target: Opioid receptors; mu & delta (Homo sapiens, UniProt P41143+P35372); experiment: OPRM1-OPRD1 heterodimer agonist potency – cell-based, luminescence, dose response (AID 588407); assay type: functional
Mu-type opioid receptor = Mu-type opioid receptor (Homo sapiens, UniProt P35372); experiment: (§1) Counterscreen for agonists of heterodimerization of the mu 1 (OPRM1) and delta 1 (OPRD1) opioid receptors: Luminescence-based cell-based high throughput dose response assay to identify agonists of OPRM1 homodimerization.; assay type: functional
Mu-type opioid receptor, sequence (P35372 whole entry): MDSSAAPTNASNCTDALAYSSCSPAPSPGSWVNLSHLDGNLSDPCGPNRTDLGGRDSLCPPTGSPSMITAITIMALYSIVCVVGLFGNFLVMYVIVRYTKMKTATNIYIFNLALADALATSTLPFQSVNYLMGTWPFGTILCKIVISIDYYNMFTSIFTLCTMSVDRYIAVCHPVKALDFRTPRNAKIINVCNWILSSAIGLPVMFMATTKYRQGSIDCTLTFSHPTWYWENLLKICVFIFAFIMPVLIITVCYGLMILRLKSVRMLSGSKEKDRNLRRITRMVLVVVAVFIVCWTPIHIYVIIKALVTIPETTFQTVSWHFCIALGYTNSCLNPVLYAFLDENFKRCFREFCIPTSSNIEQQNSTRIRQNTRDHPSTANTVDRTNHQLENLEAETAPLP

[16] = target: Delta-type opioid receptor (Homo sapiens, UniProt P41143); experiment: as §1, with “of OPRD1” for “of OPRM1”, “homodimerization. [Related pubchem assays (depositor defined):AID504326, AID504355, AID504692, AID504904, AID504905]” for “homodimerization.”; assay type: functional
Delta-type opioid receptor, sequence (P41143 whole entry): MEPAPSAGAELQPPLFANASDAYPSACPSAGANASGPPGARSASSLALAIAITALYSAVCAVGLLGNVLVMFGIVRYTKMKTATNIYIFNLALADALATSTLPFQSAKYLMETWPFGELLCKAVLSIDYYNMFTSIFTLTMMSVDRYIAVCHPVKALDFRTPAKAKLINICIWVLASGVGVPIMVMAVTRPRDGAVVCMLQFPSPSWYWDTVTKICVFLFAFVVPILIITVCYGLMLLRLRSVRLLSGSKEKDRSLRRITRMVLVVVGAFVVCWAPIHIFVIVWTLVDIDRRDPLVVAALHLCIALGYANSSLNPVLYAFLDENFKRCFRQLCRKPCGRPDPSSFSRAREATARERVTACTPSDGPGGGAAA

SMILES: CN(C)S(=O)(=O)c1ccc(NC(=O)c2cc3ccccc3o2)cc1
- CC50 [1]: > 40 µM (active)
- AC50 [2]: 21.1 µM (active)
- AC50 [3]: 29.9 µM (active)

SMILES: Cc1cc2nc3ccc(N(C)C)cc3nc2cc1N
- EC50 [4]: 14.3 µM (active)
- IC50 [5]: 34 µM (active)
- EC50 [6]: 13 µM (active)
- AC50 [7]: 33.6 µM (active)
- IC50 (Beta-arrestin-1): 8.88 µM (active)

SMILES: Cc1cc(C)n2nc(SCC(=O)N3CCN(c4ccccc4)CC3)nc2n1
- AC50 (Escherichia coli): 106 µM (active)

SMILES: COc1cc(-c2nc3n(n2)C(c2ccc(F)cc2)C2=C(O)CCCC2=N3)cc(OC)c1OC (configuration not stated)
- IC50 (HEK293 [8]): 39.1 µM (inactive)
- IC50 [9]: > 80 µM (inactive)
- IC50 (Jurkat): > 79 µM (inactive)
- IC50 (HEK293 [10]): 31.4 µM (inactive)

SMILES: O=c1c2ccccc2nc(/C=C/c2cccnc2)n1Cc1ccccc1F
- IC50 (Hexokinase-1): > 80 µM (inactive)
- IC50 (Hexokinase HKDC1): > 80 µM (inactive)

SMILES: CCOC(=O)c1ccc(NC(=O)Cn2nnc(-c3ccc(C)cc3)n2)cc1
- EC50 [11]: 158 nM (active) and 839 nM (active)

SMILES: c1cncc(-c2nc(NCCCn3cccc3)c3ccccc3n2)c1
- AC50 [12]: 7.63 µM (active)
- AC50 [13]: 2.97 µM (active)

SMILES: Br.CC1[C@H]2Cc3ccc(O)cc3[C@]1(C)CCN2CCc1ccccc1 (some centres not stated)
- EC50 [14]: > 92.5 µM (inactive)
- EC50 [15]: > 0.01406 µM
- EC50 (Mu-type opioid receptor): > 10.3 µM (inactive)
- EC50 [16]: 0.551 µM (active)
